The target in this experiment is human PDE10A2 (Homo sapiens (Human), UniProt Q9Y233). In words: PDE10 fluorescence polarization (IMAP FP) inhibition assay. The settings on record: apparent inhibition constant, FAM-labeled cAMP substrate 50 nM, room temperature. The format is biochemical. In short, it runs like this:
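Cytoplasmic lysate of AD293 cells transiently expressing human PDE10A2, enzyme preincubated 60 min at room temperature with compounds (1% DMSO), then 50 nM FAM-cAMP added for 60 min. Buffer 10 mM Tris HCl pH 7.2, 10 mM MgCl2, 1 mM DTT; IMAP binding reagent stop, FP read after ≥1 h.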
(Fluorescence polarisation rises when a labelled molecule tumbles more slowly, as on binding a larger partner.)

A value given as a limit tells only on which side of the number the result lay.

Sequence of human PDE10A2 (Q9Y233 267-1055): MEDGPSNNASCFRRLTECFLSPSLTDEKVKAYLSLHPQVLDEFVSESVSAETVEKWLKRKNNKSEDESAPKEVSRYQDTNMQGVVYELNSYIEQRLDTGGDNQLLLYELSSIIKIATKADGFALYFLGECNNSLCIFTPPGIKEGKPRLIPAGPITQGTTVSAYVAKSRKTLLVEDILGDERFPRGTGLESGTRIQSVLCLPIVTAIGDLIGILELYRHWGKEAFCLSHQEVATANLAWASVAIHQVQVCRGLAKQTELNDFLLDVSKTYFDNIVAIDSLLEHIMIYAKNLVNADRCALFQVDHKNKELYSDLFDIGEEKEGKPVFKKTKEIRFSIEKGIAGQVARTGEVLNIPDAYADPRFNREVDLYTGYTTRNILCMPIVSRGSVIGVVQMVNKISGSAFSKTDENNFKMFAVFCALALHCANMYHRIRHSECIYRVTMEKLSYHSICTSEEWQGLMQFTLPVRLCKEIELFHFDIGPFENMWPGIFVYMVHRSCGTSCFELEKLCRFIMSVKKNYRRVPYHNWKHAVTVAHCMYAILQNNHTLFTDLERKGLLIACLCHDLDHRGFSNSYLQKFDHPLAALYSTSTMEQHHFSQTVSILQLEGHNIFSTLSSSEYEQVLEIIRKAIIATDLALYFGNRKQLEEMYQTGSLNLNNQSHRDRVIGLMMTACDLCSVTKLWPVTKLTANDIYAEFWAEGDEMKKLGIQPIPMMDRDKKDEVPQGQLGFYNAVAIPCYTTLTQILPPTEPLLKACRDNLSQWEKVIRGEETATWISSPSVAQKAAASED

For the molecule `Cc1nc(C2CC2)n(-c2cc(N3CC(c4nc5ccccc5n4C)C3)nc(C(F)(F)F)n2)n1` [Example 68, 2-(1-(6-(5-cyclopropyl-3-methyl-1H-1,2,4-triazol-1-yl)-2-(trifluoromethyl)pyrimidin-4-yl)azetidin-3-yl)-1-methyl-1H-benzo[d]imidazole], the Ki came out at 1.4 nM.
For `Cc1nc(N2CC(c3nc4cccc(F)c4[nH]3)C2)cc(-n2nc(C)nc2C)n1` [Example 108, 2-(1-(6-(3,5-dimethyl-1H-1,2,4-triazol-1-yl)-2-methylpyrimidin-4-yl)azetidin-3-yl)-7-fluoro-1H-benzo[d]imidazole], the Ki is 19 nM.
Regarding `CC(=O)Nc1ncccc1-c1cc(N2CC(c3nc4ccccc4n3C)C2)nc(C)n1` [Example 83, N-(3-(2-methyl-6-(3-(1-methyl-1H-benzo[d]imidazol-2-yl)azetidin-1-yl)pyrimidin-4-yl)pyridin-2-yl)acetamide], the Ki was found to be 75 nM.
`Cc1nc(C)n(-c2cc(N3CC(c4nc5ccccc5n4C)C3)nc(OCc3nccs3)n2)n1` [Example 72, 2-(((4-(3,5-dimethyl-1H-1,2,4-triazol-1-yl)-6-(3-(1-methyl-1H-benzo[d]imidazol-2-yl)azetidin-1-yl)pyrimidin-2-yl)oxy)methyl)thiazole]: the Ki was determined as 0.28 nM.
Regarding `COc1nc(-c2ccc(C)cn2)cc(N2CC(c3nc4ccccc4n3C)C2)n1` [Example 96, 2-(1-(2-methoxy-6-(5-methylpyridin-2-yl)pyrimidin-4-yl)azetidin-3-yl)-1-methyl-1H-benzo[d]imidazole], the Ki was determined as 1.3 nM.
Under `Cc1nc(-c2ncco2)cc(N2CC(c3nc4ccccc4n3C)C2)n1` [Example 104, 2-(2-methyl-6-(3-(1-methyl-1H-benzo[d]imidazol-2-yl)azetidin-1-yl)pyrimidin-4-yl)oxazole] stands 20 nM; under `CCOC(=O)Cc1nc(N2CC(c3nc4ccccc4n3C)C2)cc(-n2nc(C)nc2C)n1` [Example 26, ethyl 2-(4-(3,5-dimethyl-1H-1,2,4-triazol-1-yl)-6-(3-(1-methyl-1H-benzo[d]imidazol-2-yl)azetidin-1-yl)pyrimidin-2-yl)acetate], 3.1 nM; under `Cc1nc(N2CC(c3nc4ccccc4n3CCC#N)C2)cc(-n2nc(C)nc2C)n1` [Example 119, 3-(2-(1-(6-(3,5-dimethyl-1H-1,2,4-triazol-1-yl)-2-methylpyrimidin-4-yl)azetidin-3-yl)-1H-benzo[d]imidazol-1-yl)propanenitrile], 5 nM.
Consider `Cc1nc(N2CC(c3nc4ccccc4n3C)C2)cc(-n2nc(C)nc2C)n1` [Example 1, 2-(1-(6-(3,5-dimethyl-1H-1,2,4-triazol-1-yl)-2-methylpyrimidin-4-yl)azetidin-3-yl)-1-methyl-1H-benzo[d]imidazole], for which the Ki is 2.1 nM.
Under `Cc1nc(N2CC(c3nc4ccccc4n3C)C2)cc(-n2ccc(C3CC3)n2)n1` [Example 13, 2-(1-(6-(3-cyclopropyl-1H-pyrazol-1-yl)-2-methylpyrimidin-4-yl)azetidin-3-yl)-1-methyl-1H-benzo[d]imidazole] stands 0.74 nM; under `Cc1nc(N2CC(c3nc4ccccc4n3C)C2)cc(-n2nc(C)nc2-c2ccccc2Cl)n1` [Example 50, 2-(1-(6-(5-(2-chlorophenyl)-3-methyl-1H-1,2,4-triazol-1-yl)-2-methylpyrimidin-4-yl)azetidin-3-yl)-1-methyl-1H-benzo[d]imidazole], 0.35 nM; under `Cc1cn(-c2cc(N3CC(c4nc5ccccc5n4C)C3)nc(C(F)(F)F)n2)nn1` [Example 30, 1-methyl-2-(1-(6-(4-methyl-1H-1,2,3-triazol-1-yl)-2-(trifluoromethyl)pyrimidin-4-yl)azetidin-3-yl)-1H-benzo[d]imidazole], 5.6 nM.
As to `COc1ccn(-c2cc(N3CC(c4nc5ccccc5n4C)C3)nc(C)n2)n1` [Example 12, 2-(1-(6-(3-methoxy-1H-pyrazol-1-yl)-2-methylpyrimidin-4-yl)azetidin-3-yl)-1-methyl-1H-benzo[d]imidazole], the Ki is 4.7 nM.
Regarding `Cc1nc(N2CC(c3nc4ccccc4n3C)C2)cc(-n2nc(C)nc2COc2ccccc2)n1` [Example 46, 1-methyl-2-(1-(2-methyl-6-(3-methyl-5-(phenoxymethyl)-1H-1,2,4-triazol-1-yl)pyrimidin-4-yl)azetidin-3-yl)-1H-benzo[d]imidazole], the Ki came out at 1.2 nM.
Take `Cc1ccc(-c2nc(C)nn2-c2cc(N3CC(c4nc5ccccc5n4C)C3)nc(C)n2)cn1` [Example 55, 1-methyl-2-(1-(2-methyl-6-(3-methyl-5-(6-methylpyridin-3-yl)-1H-1,2,4-triazol-1-yl)pyrimidin-4-yl)azetidin-3-yl)-1H-benzo[d]imidazole]: the Ki came out at 10 nM.
Take `Cc1nc(-c2cccnc2)cc(N2CC(c3nc4ccccc4n3C)C2)n1` [Example 81, 1-methyl-2-(1-(2-methyl-6-(pyridin-3-yl)pyrimidin-4-yl)azetidin-3-yl)-1H-benzo[d]imidazole]: the Ki worked out at 76 nM.
As for `Cc1nc(N2CC(c3nc4ccccc4n3C)C2)cc(-n2nc(C)nc2-c2c(F)cccc2F)n1` [Example 56, 2-(1-(6-(5-(2,6-difluorophenyl)-3-methyl-1H-1,2,4-triazol-1-yl)-2-methylpyrimidin-4-yl)azetidin-3-yl)-1-methyl-1H-benzo[d]imidazole], the Ki amounted to 0.24 nM.
On to `Cc1ccc(-c2cc(N3CC(c4nc5ccccc5n4C)C3)nc(C(F)(F)F)n2)nc1` [Example 97, 1-methyl-2-(1-(6-(5-methylpyridin-2-yl)-2-(trifluoromethyl)pyrimidin-4-yl)azetidin-3-yl)-1H-benzo[d]imidazole], for which the Ki is 0.9 nM.
Under `Cc1nc(N2CC(c3nc4ccccc4n3C)C2)cc(-n2nc(C(F)(F)F)nc2C)n1` [Example 21, 1-methyl-2-(1-(2-methyl-6-(5-methyl-3-(trifluoromethyl)-1H-1,2,4-triazol-1-yl)pyrimidin-4-yl)azetidin-3-yl)-1H-benzo[d]imidazole] stands 7 nM; under `CCc1nc(C)nn1-c1cc(N2CC(c3nc4ccccc4n3C)C2)nc(C(F)(F)F)n1` [Example 67, 2-(1-(6-(5-ethyl-3-methyl-1H-1,2,4-triazol-1-yl)-2-(trifluoromethyl)pyrimidin-4-yl)azetidin-3-yl)-1-methyl-1H-benzo[d]imidazole], 0.28 nM.
As for `Cc1cccc(-c2cc(N3CC(c4nc5ccccc5n4C)C3)nc(C)n2)n1` [Example 98, 1-methyl-2-(1-(2-methyl-6-(6-methylpyridin-2-yl)pyrimidin-4-yl)azetidin-3-yl)-1H-benzo[d]imidazole], the Ki was found to be 5.5 nM.
Regarding `Cc1nc(C)n(-c2cc(N3CC(c4nc5ccccc5n4C)C3)nc(C#N)n2)n1` [Example 79, 4-(3,5-dimethyl-1H-1,2,4-triazol-1-yl)-6-[3-(1-methyl-1H-benzimidazol-2-yl)azetidin-1-yl]pyrimidine-2-carbonitrile], the Ki came out at 0.28 nM.
For `Cc1nc(-c2ccccc2F)cc(N2CC(c3nc4ccccc4n3C)C2)n1` [Example 90, 2-(1-(6-(2-fluorophenyl)-2-methylpyrimidin-4-yl)azetidin-3-yl)-1-methyl-1H-benzo[d]imidazole] the value was 15 nM; for `Cc1nc(N2CC(c3nc4ccccc4n3CCF)C2)cc(-n2nc(C)nc2C)n1` [Example 116, 2-(1-(6-(3,5-dimethyl-1H-1,2,4-triazol-1-yl)-2-methylpyrimidin-4-yl)azetidin-3-yl)-1-(2-fluoroethyl)-1H-benzo[d]imidazole], 6.2 nM.
Turning to `Cc1ccc2nc(C3CN(c4cc(-n5nc(C)nc5C)nc(C)n4)C3)[nH]c2c1` [Example 111, 2-(1-(6-(3,5-dimethyl-1H-1,2,4-triazol-1-yl)-2-methylpyrimidin-4-yl)azetidin-3-yl)-6-methyl-1H-benzo[d]imidazole], the Ki came to 39 nM.
On to `Cc1nc(-c2ccncc2)cc(N2CC(c3nc4ccccc4n3C)C2)n1` [Example 86, 1-methyl-2-(1-(2-methyl-6-(pyridin-4-yl)pyrimidin-4-yl)azetidin-3-yl)-1H-benzo[d]imidazole], for which the Ki was determined as 46 nM.
`Cc1nc(-c2nccs2)cc(N2CC(c3nc4ccccc4n3C)C2)n1` [Example 105, 2-(2-methyl-6-(3-(1-methyl-1H-benzo[d]imidazol-2-yl)azetidin-1-yl)pyrimidin-4-yl)thiazole]: the Ki was 2.2 nM.
Under `COc1nc(N2CC(c3nc4ccccc4n3C)C2)cc(-n2ncc(C)n2)n1` [Example 34, 2-{1-[2-methoxy-6-(4-methyl-2H-1,2,3-triazol-2-yl)pyrimidin-4-yl]azetidin-3-yl}-1-methyl-1H-benzimidazole] stands 1.4 nM.
For `Cc1nc(N2CC(c3nc4cccc(C)c4[nH]3)C2)cc(-n2nc(C)nc2C)n1` [Example 110, 2-(1-(6-(3,5-dimethyl-1H-1,2,4-triazol-1-yl)-2-methylpyrimidin-4-yl)azetidin-3-yl)-7-methyl-1H-benzo[d]imidazole] the value was 17 nM; for `Cc1nc(N2CC(c3nc4cccc(C(F)(F)F)c4[nH]3)C2)cc(-n2nc(C)nc2C)n1` [Example 112, 2-(1-(6-(3,5-dimethyl-1H-1,2,4-triazol-1-yl)-2-methylpyrimidin-4-yl)azetidin-3-yl)-7-(trifluoromethyl)-1H-benzo[d]imidazole], > 75 nM; for `COc1nc(C)ccc1-c1cc(N2CC(c3nc4ccccc4n3C)C2)nc(C)n1` [Example 84, 2-(1-(6-(2-methoxy-6-methylpyridin-3-yl)-2-methylpyrimidin-4-yl)azetidin-3-yl)-1-methyl-1H-benzo[d]imidazole], 27 nM.
For `Cc1nc(N2CC(c3nc4ccccc4n3C)C2)cc(-n2nc(C)nc2-c2ccccc2)n1` [Example 49, 1-methyl-2-(1-(2-methyl-6-(3-methyl-5-phenyl-1H-1,2,4-triazol-1-yl)pyrimidin-4-yl)azetidin-3-yl)-1H-benzo[d]imidazole] the value was 6.8 nM.
